Biological target: 468 kinases including some pathogenic mutants (Mycobacterium tuberculosis, UniProt P9WI81)
Assay: biochemical
Assay type: binding

CN1C(=O)[C@@H](N2CCc3c(nn(Cc4ccccc4)c3C(N)=O)C2=O)COc2cc(Cl)ccc21 [Compound 10, (S)-2-benzyl-6-(8-chloro-5-methyl-4-oxo-2,3,4,5-tetrahydrobenzo[b][1,4]oxazepin-3-yl)-7-oxo-4,5,6,7-tetrahydro-2H-pyrazolo[3,4-c]pyridine-3-carboxamide]
Percent Control: 100%

Reference: article PMC12090182, “Repurposing of the RIPK1-Selective Benzo[1,4]oxazepin-4-one Scaffold for the Development of a Type III LIMK1/2 Inhibitor” (ACS Chemical Biology, 2025)
